Experiments:
hLEC migration = test: Scratch migration assay, hLEC; assay type: cell-based, human
Experimental: (§1) Scratch migration assay—Migration assay was performed as per Liang et al., 2007^36, HUVECs and hLECs were grown to confluence in 24 well dishes, and then scratched with a 200 μL pipette tip. […] Four fields per well were imaged at T=0 hrs and at T=24 hrs post-scratch or T=72 hrs for HUVECs and hLECs respectively using an Olympus IX-81 inverted microscope equipped with a QImaging Retiga 4000R camera at 4× magnification. The percent change in migration was calculated by measuring the open area of the scratch at the above mentioned time-points (ImageJ). Results shown are representative of four independent experiments with HUVECs and three for hLECs.

[1] = tested on: HUVEC tube/network formation; test: Tube formation assay in Matrigel matrix, HUVEC; assay type: cell-based, human; details: for inhibition of angiogenesis in Notch-expressing HUVECs / number of branch points per field: HUVEC; for number of branch points per field: all concentrations (2-20 μM); for network formation by HUVEC: lowest concentration (2 μM), 24 hrs
Experimental: Tube formation assay—This assay was performed based on the protocol by Arnaoutova and Kleinman, 2010^37.

[2] = tested on: Notch target gene Hey1 in HUVEC; test: Quantitative RT-PCR of Notch target gene Hey1 in HUVEC; assay type: cell-based, human; details: 24 hrs post treatment
Experimental: RNA was extracted from cultured HUVEC or hLEC cells either 24 hrs or 72 hrs post treatment respectively using TRIzol reagent (Ambion 15596026) followed by DNase (Promega M6101) treatment and cDNA prepared using iScript (BioRad 170-8890). Quantitative RT-PCR was done on StepOnePlus (ABI) using TaqMan Gene Expression Master Mix (ThermoFisher Scientific 4369016). Gene expression was assessed using human Single-tube assays (Thermo Fisher Scientific/Applied Biosystems): GAPDH (4310884E), ACTB (Hs99999903_m1) and HEY1 (Hs01114113_m1). Comparative ΔΔCT method was used to analyze relative gene expression with ExpressionSuite Software (Thermo Fisher Scientific). Expression was normalized to housekeeping controls GAPDH and ACTB.

[3] = tested on: human lymphatic endothelial cells (hLECs); test: Cell viability (trypan blue, Countess automated cell counter), hLEC; assay type: cell-based; details: for change of hLEC viability at concentrations less than 20 μM: concentrations lower than 20 μM, vs untreated controls
Experimental: (§2) Dermal human lymphatic endothelial cells (hLECs) from human neonates (HMVEC-dLyNeo-Der, Lonza CC-2812) and human umbilical venous endothelial cells (HUVEC, Lonza CC-2517) were used for in vitro assays (below) within 8 passages and maintained in EGM-2MV bullet kit (Lonza CC3202) and EGM bullet kit media respectively.
(§3) Cell viability: To examine the effect of GSI on cell viability, hLEC and HUVEC cultures were incubated with effects of graded concentrations [2, 4, 6, 8, 10, 20 μM] of DAPT (Selleckchem, S2215) or RO4909297 (Selleckchem, S1575) [2-20 μM] for 24-72 hours. The percentage of viable cells was determined using the Countess automated cell counter (Thermofisher, C10227). Briefly, 80-90% confluent HUVEC and hLEC cultures were trypsinized, washed, and 10 μL of cell sample was mixed with an equal amount of 0.4% trypan blue stain and loaded onto the counting chamber.

HUVEC migration = test: Scratch migration assay, HUVEC; assay type: cell-based, human
Experimental: as §1

[4] = Cell viability (trypan blue, Countess automated cell counter), hLEC; assay type: cell-based, human; details: human; 20 μM, hLEC; read-out: reduction of hLEC viability
Experimental: as §2, §3

## C[C@H](NC(=O)Cc1cc(F)cc(F)c1)C(=O)N[C@H](C(=O)OC(C)(C)C)c1ccccc1 [DAPT, N-[N-(3,5-difluorophenacetyl-L-alanyl)]-S-phenylglycine t-butyl ester]
hLEC migration; 8 μM, hLEC, 72 hrs post-scratch
  hLEC migration reduced to: about 50%
[1]
  inhibition of angiogenesis in Notch-expressing HUVECs: effective in inhibiting angiogenesis
  number of branch points per field: significantly reduced
  network formation by HUVEC: dramatically reduced
[2]
  lowest concentration that downregulated Hey1 expression in HUVECs: 4 µM
[3]; 20 μM, hLEC
  reduction of hLEC viability: ~30%
[3]
  change of hLEC viability at concentrations less than 20 μM: without significant changes
HUVEC migration; 8 μM, 24 hrs post-scratch
  HUVEC migration reduced to: about 35%

## CC(C)(C(=O)NCC(F)(F)C(F)(F)F)C(=O)N[C@@H]1C(=O)Nc2ccccc2-c2ccccc21 [RO4929097, 2,2-Dimethyl-N-[(7S)-6-oxo-6,7-dihydro-5H-dibenzo[b,d]azepin-7-yl]-N′-(2,2,3,3,3-pentafluoropropyl)malonamide]
hLEC migration; 6 μM, hLEC
  effectiveness on hLEC migration compared with 8 μM DAPT: more effective
hLEC migration; at lower concentrations compared to HUVECs
  reduction of migration in hLECs: greater than 50%
[1]
  inhibition of angiogenesis in Notch-expressing HUVECs: effective in inhibiting angiogenesis
  number of branch points per field: significantly reduced
  network formation by HUVEC: dramatically reduced
[2]
  lowest concentration that downregulated Hey1 expression in HUVECs: 2 µM
[4]
  cytotoxicity at 20 μM: ~30%
[3]
  change of hLEC viability at concentrations less than 20 μM: without significant changes
HUVEC migration; 6 μM
  effectiveness on HUVEC migration compared with 8 μM DAPT: more effective

— patent publication US20220133672A1, “NOTCH INHIBITORS FOR THE TREATMENT OF VASCULAR MALFORMATIONS” (The University of North Carolina at Chapel Hill, priority 2018, published 2022)
